Data published in PubChem BioAssay AID292 (DTP/NCI, 2004).
Where “and” joins values, the source holds several entries; their conditions need not be identical. Equal values may be shown once. Toxic doses and inconclusive results are not listed.

Tested on: B6C3F1 mice, ip Sarcoma M5076, median survival T/C
Assay: NCI In Vivo Anticancer Drug Screen. Data for tumor model Sarcoma M5076 (intraperitoneal) in B6C3F1 mice
Settings: endpoint: median survival time, higher = longer survival
In short: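 Mice carrying the transplanted tumour received compound treatment. Survival was recorded, and each value is the treated-group measurement divided by that of the vehicle-dosed control group.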

[1] = dose: 25.0 mg/kg/injection, schedule: Q04DX004 (ip), vehicle: suspension in saline
[2] = dose: 50.0 mg/kg/injection, schedule: Q04DX004 (ip), vehicle: suspension in saline
[3] = dose: 100.0 mg/kg/injection, schedule: Q04DX004 (ip), vehicle: suspension in saline
[4] = dose: 50.0 mg/kg/injection, schedule: Q04DX004 (ip), vehicle: saline with Tween-80
[5] = dose: 100.0 mg/kg/injection, schedule: Q04DX004 (ip), vehicle: saline with Tween-80
[6] = dose: 200.0 mg/kg/injection, schedule: Q04DX004 (ip), vehicle: saline with Tween-80
[7] = dose: 400.0 mg/kg/injection, schedule: Q04DX004 (ip), vehicle: saline with Tween-80
[8] = dose: 50.0 mg/kg/injection, schedule: Q04DX004 (ip), vehicle: Klucel (hydroxypropylcellulose) (HPC)
[9] = dose: 100.0 mg/kg/injection, schedule: Q04DX004 (ip), vehicle: Klucel (hydroxypropylcellulose) (HPC)
[10] = dose: 200.0 mg/kg/injection, schedule: Q04DX004 (ip), vehicle: Klucel (hydroxypropylcellulose) (HPC)
[11] = dose: 400.0 mg/kg/injection, schedule: Q04DX004 (ip), vehicle: Klucel (hydroxypropylcellulose) (HPC)
[12] = dose: 12.5 mg/kg/injection, schedule: Q04DX004 (ip), vehicle: water
[13] = dose: 50.0 mg/kg/injection, schedule: Q04DX004 (ip), vehicle: water
[14] = dose: 100.0 mg/kg/injection, schedule: Q04DX004 (ip), vehicle: water
[15] = dose: 25.0 mg/kg/injection, schedule: Q04DX004 (ip), vehicle: Klucel (hydroxypropylcellulose) (HPC)

O=C(O)Cc1cccc2c(=O)cc(-c3ccccc3)oc12
T/C (dose: 6.25 mg/kg/injection, schedule: Q04DX004 (ip), vehicle: suspension in saline): 98 % of control
T/C (dose: 12.5 mg/kg/injection, schedule: Q04DX004 (ip), vehicle: suspension in saline): 95 % of control
T/C [1]: 102 % of control
T/C [2]: 100 % of control
T/C [3]: 102 % of control

O=Cc1ccc(O)c(O)c1
T/C [4]: 100 % of control
T/C [5]: 96 % of control
T/C [6]: 104 % of control
T/C [7]: 104 % of control

CCC(CC)COC(=O)c1ccccc1C(=O)OCC(CC)CC
T/C (dose: 75.0 mg/kg/injection, schedule: Q04DX004 (ip), vehicle: saline with Tween-80): 102 % of control
T/C (dose: 150.0 mg/kg/injection, schedule: Q04DX004 (ip), vehicle: saline with Tween-80): 102 % of control
T/C (dose: 300.0 mg/kg/injection, schedule: Q04DX004 (ip), vehicle: saline with Tween-80): 104 % of control
T/C (dose: 600.0 mg/kg/injection, schedule: Q04DX004 (ip), vehicle: saline with Tween-80): 106 % of control
T/C (dose: 1200.0 mg/kg/injection, schedule: Q04DX004 (ip), vehicle: saline with Tween-80): 114 % of control

CCOC(=O)c1c[nH]c2ccc3c(nc(C)n3C)c2c1=O
T/C [8]: 101 % of control
T/C [9]: 104 % of control
T/C [10]: 101 % of control
T/C [11]: 98 % of control
T/C (dose: 800.0 mg/kg/injection, schedule: Q04DX004 (ip), vehicle: Klucel (hydroxypropylcellulose) (HPC)): 103 % of control

COc1ccc2c(c1)-c1nn(CCCN(C)C)c3ccc([N+](=O)[O-])c(c13)N2
T/C (dose: 6.25 mg/kg/injection, schedule: Q04DX004 (ip), vehicle: water): 118 % of control
T/C [12]: 120 % of control
T/C [13]: 156 % of control and 170 % of control
T/C [14]: 96 % of control

Cc1noc2nc(-c3ccccc3)cc(N3CCN(C)CC3)c12
T/C (dose: 25.0 mg/kg/injection, schedule: Q04DX004 (ip), vehicle: other): 95 % of control
T/C (dose: 50.0 mg/kg/injection, schedule: Q04DX004 (ip), vehicle: other): 105 % of control
T/C (dose: 100.0 mg/kg/injection, schedule: Q04DX004 (ip), vehicle: other): 99 % of control
T/C (dose: 200.0 mg/kg/injection, schedule: Q04DX004 (ip), vehicle: other): 97 % of control

Nc1nncs1
T/C [5]: 111 % of control
T/C (dose: 100.0 mg/kg/injection, schedule: Q04DX005 (ip), vehicle: saline with Tween-80): 112 % of control
T/C (dose: 100.0 mg/kg/injection, schedule: Q04DX005 (ip), vehicle: saline): 114 % of control and 116 % of control
T/C [6]: 112 % of control
T/C (dose: 200.0 mg/kg/injection, schedule: Q04DX005 (ip), vehicle: saline with Tween-80): 112 % of control
T/C (dose: 200.0 mg/kg/injection, schedule: Q04DX005 (ip), vehicle: saline): 109 % of control and 121 % of control
T/C [7]: 121 % of control
T/C (dose: 400.0 mg/kg/injection, schedule: Q04DX005 (ip), vehicle: saline): 95 % of control
T/C (dose: 800.0 mg/kg/injection, schedule: Q04DX005 (ip), vehicle: saline): 151 % of control

NC(C(=O)O)/C1=C/CCCCCC1 (stereo not given)
T/C [15]: 100 % of control
T/C [8]: 98 % of control
T/C [9]: 100 % of control
T/C [10]: 111 % of control
T/C [11]: 103 % of control

OC1OCC(COc2ccc(Cl)cc2)OC1O (stereo not given)
T/C [4]: 103 % of control
T/C [5]: 114 % of control
T/C [6]: 93 % of control
T/C [7]: 104 % of control

Nc1ncnc2c1ncn2C1CC2[O][Sn]([c]3ccccc3)([c]3ccccc3)[O]CC2O1 (stereo not given)
T/C (dose: 31.13 mg/kg/injection, schedule: Q04DX004 (ip), vehicle: distilled water + Tween-80): 95 % of control
T/C (dose: 62.5 mg/kg/injection, schedule: Q04DX004 (ip), vehicle: distilled water + Tween-80): 92 % of control
T/C (dose: 125.0 mg/kg/injection, schedule: Q04DX004 (ip), vehicle: distilled water + Tween-80): 101 % of control
T/C (dose: 250.0 mg/kg/injection, schedule: Q04DX004 (ip), vehicle: distilled water + Tween-80): 101 % of control
T/C (dose: 500.0 mg/kg/injection, schedule: Q04DX004 (ip), vehicle: distilled water + Tween-80): 104 % of control

COC(=O)NC1C(C)OC(OC2C/C=C(/C)C3C=CC4C(OC5CC(OC6CC(OC7CC(O)C(O)C(C)O7)C(OC7CC(O)C(OC)C(C)O7)C(C)O6)C(O)C(C)O5)C(C)CC(C)C4C3(C)/C(O)=C3\C(=O)OC4(CC(C)C(CO)=CC4/C=C\2C)C3=O)CC1(C)[N+](=O)[O-] (stereo not given)
T/C [12]: 97 % of control
T/C (dose: 25.0 mg/kg/injection, schedule: Q04DX004 (ip), vehicle: water): 100 % of control
T/C [13]: 94 % of control
T/C [14]: 104 % of control
T/C (dose: 200.0 mg/kg/injection, schedule: Q04DX004 (ip), vehicle: water): 111 % of control

Nc1c(/C=C/c2cc3cc(C4=NCCN4)ccc3o2)[nH]c2cc(C3=NCCN3)ccc12
T/C (dose: 6.25 mg/kg/injection, schedule: Q04DX004 (ip), vehicle: Klucel (hydroxypropylcellulose) (HPC)): 107 % of control
T/C (dose: 12.5 mg/kg/injection, schedule: Q04DX004 (ip), vehicle: Klucel (hydroxypropylcellulose) (HPC)): 106 % of control
T/C [15]: 104 % of control

CCn1c2ccccc2c2cc(N=Nc3cc4ccccc4cc3O)ccc21
T/C (dose: 43.75 mg/kg/injection, schedule: Q04DX004 (ip), vehicle: Klucel (hydroxypropylcellulose) (HPC)): 89 % of control

O=C(O)CC1C(=O)OC2C3COC(=O)c4cc(O)c(O)c(O)c4-c4c(cc(O)c(O)c4O)C(=O)OC2C(OC(=O)c2cc(O)c(O)c4c2C1C(O)C(=O)O4)C(OC(=O)c1cc(O)c(O)c(O)c1)O3 (stereo not given)
T/C (dose: 6.25 mg/kg/injection, schedule: Q04DX004 (ip), vehicle: saline): 89 % of control
T/C (dose: 12.5 mg/kg/injection, schedule: Q04DX004 (ip), vehicle: saline): 96 % of control
T/C (dose: 25.0 mg/kg/injection, schedule: Q04DX004 (ip), vehicle: saline): 97 % of control
T/C [1]: 96 % of control
T/C (dose: 50.0 mg/kg/injection, schedule: Q04DX004 (ip), vehicle: saline): 104 % of control
T/C [2]: 97 % of control
T/C (dose: 100.0 mg/kg/injection, schedule: Q04DX004 (ip), vehicle: saline): 96 % of control
T/C [3]: 100 % of control

C[CH2][Sn]([Cl])([CH2]C)[c]1cc[c]([Sn]([Cl])([CH2]C)[CH2]C)cc1
T/C (dose: 0.06 mg/kg/injection, schedule: Q04DX004 (ip), vehicle: Klucel (hydroxypropylcellulose) (HPC)): 102 % of control
T/C (dose: 0.12 mg/kg/injection, schedule: Q04DX004 (ip), vehicle: Klucel (hydroxypropylcellulose) (HPC)): 89 % of control
T/C (dose: 0.25 mg/kg/injection, schedule: Q04DX004 (ip), vehicle: Klucel (hydroxypropylcellulose) (HPC)): 91 % of control
T/C (dose: 0.5 mg/kg/injection, schedule: Q04DX004 (ip), vehicle: Klucel (hydroxypropylcellulose) (HPC)): 101 % of control
T/C (dose: 90.0 micrograms/kg/injection, schedule: Q04DX004 (ip), vehicle: Klucel (hydroxypropylcellulose) (HPC)): 106 % of control
T/C (dose: 150.0 micrograms/kg/injection, schedule: Q04DX004 (ip), vehicle: Klucel (hydroxypropylcellulose) (HPC)): 96 % of control
T/C (dose: 250.0 micrograms/kg/injection, schedule: Q04DX004 (ip), vehicle: Klucel (hydroxypropylcellulose) (HPC)): 100 % of control
T/C (dose: 416.7 micrograms/kg/injection, schedule: Q04DX004 (ip), vehicle: Klucel (hydroxypropylcellulose) (HPC)): 98 % of control
T/C (dose: 694.5 micrograms/kg/injection, schedule: Q04DX004 (ip), vehicle: Klucel (hydroxypropylcellulose) (HPC)): 107 % of control

COC12[C@@H]3N[C@@H]3CN1C1=C(C(=O)C(NCCSSCCNC3=C(C)C(=O)C4=C(C3=O)C(COC(N)=O)[C@]3(OC)C5N[C@@H]5CN43)=C(C)C1=O)[C@@H]2COC(N)=O (stereo not given in full)
T/C (dose: 3.0 mg/kg/injection, schedule: Q04DX004 (ip), vehicle: other): 161 % of control
T/C (dose: 6.0 mg/kg/injection, schedule: Q04DX004 (ip), vehicle: other): 216 % of control
T/C (dose: 12.0 mg/kg/injection, schedule: Q04DX004 (ip), vehicle: other): 91 % of control
T/C (dose: 12.5 mg/kg/injection, schedule: Q04DX004 (ip), vehicle: other): 253 % of control

CCCCCCN1CCN(Cc2ccc(N(CC)CC)cc2)C(=O)C1=O
T/C [15]: 95 % of control
T/C [8]: 107 % of control

C=Cc1cc(OC)c2c(c1)c(=O)oc1c2cc(OC)c2c(O)ccc(C3OC(C(C)O)C(O)C3O)c21 (stereo not given)
T/C [8]: 109 % of control
T/C [9]: 115 % of control
T/C [10]: 110 % of control
